Consider 28 compounds from patent publication US20260256751A1, “COMBINATION OF BETA-2-ADRENERGIC RECEPTOR AGONISTS AND GLP-1 RECEPTOR AGONISTS FOR USE IN TREATING HYPERGLYCAEMIA” (ATROGI AB, priority 2023, published 2026).

In assay [1] the test system is differentiated L6-myotubes. The assay can be described thus: cAMP production relative to isoprenaline (Biological example 2 of WO 2019/053427). The note with it: 0.25 h, compound at 10 μM, activity relative to isoproterenol at 10 μM. The format is cell-based. A digest of the protocol: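 Differentiated L6 myotubes stimulated 15 min with test compound or isoprenaline, each at final 1×10^−5 M, in HBSS with 1% BSA, 5 mM HEPES, 1 mM IBMX, pH 7.4. cAMP production by the compound expressed relative to that induced by the same concentration of isoprenaline.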
For orientation: Cyclic AMP is a second messenger, typically raised through Gs and lowered through Gi signalling.

In assay [2] the test system is differentiated L6-myotubes. Briefly: Glucose uptake screen (Biological example 1 of WO 2019/053427). The note with it: compound at 10 μM, activity relative to isoproterenol at 10 μM, read-out: Biological example 1 of WO 2019/053427 (GU). Type of assay: cell-based. A digest of the protocol:
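Rat L6 myoblasts were differentiated into myotubes over 7 days in 2% FBS, then serum-starved overnight. Cells were stimulated with 1×10^−5 M compound plus β2 antagonist ICI-118551 for 1 h 40 min and re-dosed for 20 min in glucose-free medium. Uptake of 50 nM ^3H-2-deoxyglucose over 10 min was counted after NaOH lysis.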

The structures appear in SMILES notation.

For `CC(C)(C[C@H]1CC[C@H](NS(C)(=O)=O)CC1)NC[C@H](O)c1cccc(C#N)n1` [Compound 426, 6-[(S)-2-{1,1-dimethyl-2-[(1r,4S)-4-(mesylamino)cyclohexyl]ethylamino}-1-hydroxyethyl]-2-pyridinecarbonitrile], the Emax at 10 µM in assay [1] is below 25%; in assay [2], above 75%.

In the case of `CC(=O)N[C@H]1CC[C@H](CC(C)(C)NC[C@@H](O)c2cccc(C#N)n2)CC1` [Compound 427, N-[(1R,4r)-4-{2-[(R)-2-(6-cyano-2-pyridyl)-2-hydroxyethylamino]-2-methylpropyl}cyclohexyl]acetamide], the Emax at 10 µM in assay [1] and in assay [2] was below 25% each time.

On to `CC(C)(C[C@H]1CC[C@H](NS(C)(=O)=O)CC1)NC[C@@H](O)c1cccc(C#N)n1` [Compound 428, 6-[(R)-2-{1,1-dimethyl-2-[(1r,4R)-4-(mesylamino)cyclohexyl]ethylamino}-1-hydroxyethyl]-2-pyridinecarobnitrile], for which the Emax at 10 µM in assay [1] and in assay [2] was below 25% in each case.

For the compound `CC(C)(C[C@H]1CC[C@H](NC(=O)C(C)(C)C)CC1)NC[C@H](O)c1cccc(F)c1` [Compound 429, N-[(1R,4r)-4-{2-[(R)-2-(m-fluorophenyl)-2-hdyroxyethylamino]-2-methylpropyl}cyclohexyl]2,2-dimethylpropionamide], the Emax at 10 µM in assay [1] is 25 to 50%; in assay [2] it was above 75%.

As for `CN(C)C(=O)N[C@H]1CC[C@H](CC(C)(C)NC[C@H](O)c2cccc(F)c2)CC1` [Compound 430, (R)-2-{1,1-dimethyl-2-[(1r,4R)-4-(3,3-dimethylureido)cyclohexyl]ethylamino}-1-(m-fluorophenyl)-1-ethanol], the results for the Emax at 10 µM in assay [1] and in assay [2] were 50 to 75% and above 75%, respectively.

As for `CC(C)(C[C@H]1CC[C@H](NC(=O)C2CCC2)CC1)NC[C@H](O)c1cccc(F)c1` [Compound 431, N-[(1R,4r)-4-{2-[(R)-2-(m-fluorophenyl)-2-hydroxyethylamino]-2-methylpropyl}cyclohexyl]cyclobutanecarboxamide], the Emax at 10 µM in assay [1] is 50 to 75%; in assay [2] it was above 75%.

With `CC(C)(C[C@H]1CC[C@H](NC(=O)C2CC2)CC1)NC[C@H](O)c1cccc(F)c1` [Compound 432, N-[(1R,4r)-4-{2-[(R)-2-(m-fluorophenyl)-2-hydroxyethylamino]-2-methylpropyl}cyclohexyl]cyclopropanecarboxmaide], the Emax at 10 µM in assay [1] and in assay [2] was above 75% each time.

For the compound `CC(C)(C[C@H]1CC[C@H](NC(=O)C(F)(F)F)CC1)NC[C@H](O)c1cccc(F)c1` [Compound 433, N-[(1R,4r)-4-{2-[(R)-2-(m-fluorophenyl)-2-hydroxyethylamino]-2-methylpropyl}cyclohexyl]trifluoroacetamide], the Emax at 10 µM in assay [1] was 25 to 50%; in assay [2], above 75%.

With `CC(=O)N[C@H]1CC[C@H](CC(C)(C)NC[C@H](O)c2cccnc2C)CC1` [Compound 434, N-[(1R,4r)-4-{2-[(R)-2-hydroxy-2-(2-methyl-3-pyridyl)ethylamino]-2-methylpropyl}cyclohexyl]acetamide], the results for the Emax at 10 µM in assay [1] and in assay [2] were below 25% and above 75%, respectively.

As for `Cc1ncccc1[C@@H](O)CNC(C)(C)C[C@H]1CC[C@H](NS(C)(=O)=O)CC1` [Compound 435, (R)-2-{1,1-dimethyl-2-[(1r,4R)-4-(mesylamino)cyclohexyl]ethylamino}-1-(2-methyl-3-pyridyl)-1-ethanol], the Emax at 10 µM in assay [1] is below 25%; in assay [2], 25 to 50%.

For `CC(=O)N[C@H]1CC[C@@H](CC(C)(C)NC[C@H](O)c2cccnc2C)CC1` [Compound 436, N-[(1S,4s)-4-{2-[(R)-2-hydroxy-2-(2-methyl-3-pyridyl)ethylamino]-2-methylpropyl}cyclohexyl]acetamide], the Emax at 10 µM in assay [1] is below 25%; in assay [2], 50 to 75%.

With `Cc1ncccc1[C@@H](O)CNC(C)(C)C[C@H]1CC[C@@H](NS(C)(=O)=O)CC1` [Compound 437, (R)-2-{1,1-dimethyl-2-[(1s,4S)-4-(mesylamino)cyclohexyl]ethylamino}-1-(2-methyl-3-pyridyl)-1-ethanol], the Emax at 10 µM in assay [1] is below 25%; in assay [2], 25 to 50%.

For `O[C@@H](c1cccc(F)c1)C12CCC(COCc3ccc(F)cc3)(CC1)N2` [Compound 438, (S)-(m-fluorophenyl)(4-{[(p-fluorophenyl)methoxy]methyl}-7-azabicyclo[2.2.1]hept-1-yl)methanol], the Emax at 10 µM in assay [1] and in assay [2] was below 25% each time.

On to `O[C@H](c1cccc(F)c1)C12CCC(COCc3ccc(F)cc3)(CC1)N2` [Compound 439, (R)-(m-fluorophenyl)(4-{[(p-fluorophenyl)methoxy]methyl}-7-azabicyclo[2.2.1]hept-1-yl)methanol], for which the figures for the Emax at 10 µM in assay [1] and in assay [2] were 25 to 50% and above 75%, respectively.

In the case of `O[C@@H](c1cccc(F)c1)C12CCC(COc3ccc(Cl)cc3)(CC1)N2` [Compound 440, (S)-{4-[(p-chlorophenoxy)methyl]-7-azabicyclo[2.2.1]hept-1-yl}(m-fluorophenyl)methanol], the figures for the Emax at 10 µM in assay [1] and in assay [2] were below 25% and above 75%, respectively.

In the case of `O[C@H](c1cccc(F)c1)C12CCC(COc3ccc(Cl)cc3)(CC1)N2` [Compound 441, (R)-{4-[(p-chlorophenoxy)methyl]-7-azabicyclo[2.2.1]hept-1-yl}(m-fluorophenyl)methanol], the figures for the Emax at 10 µM in assay [1] and in assay [2] were below 25% and above 75%, respectively.

On to `O[C@@H](c1cncc(F)c1)C12CCC(COCc3ccc(F)cc3)(CC1)N2` [Compound 442, (S)-(4-{[(p-fluorophenyl)methoxy]methyl}-7-azabicyclo[2.2.1]hept-1-yl)(5-fluoro-3-pyridyl)methanol], for which the Emax at 10 µM in assay [1] was below 25%; in assay [2], 25 to 50%.

Turning to `O[C@H](c1cncc(F)c1)C12CCC(COCc3ccc(F)cc3)(CC1)N2` [Compound 443, (R)-(4-{[(p-fluorophenyl)methoxy]methyl}-7-azabicyclo[2.2.1]hept-1-yl)(5-fluoro-3-pyridyl)methanol], the Emax at 10 µM in assay [1] is 25 to 50%; in assay [2] it was above 75%.

As for `O[C@H](c1ccccc1F)C12CCC(CCc3cccnc3)(CC1)N2` [Compound 444, (R)-(o-fluorophenyl){4-[2-(3-pyridyl)ethyl]-7-azabicyclo[2.2.1]hept-1-yl}methanol], the Emax at 10 µM in assay [1] was 50 to 75%; in assay [2], above 75%.

As for `O[C@@H](c1cccc(F)c1)C12CCC(CCc3cccnc3)(CC1)N2` [Compound 445, (S)-(m-fluorophenyl){4-[2-(3-pyridyl)ethyl]-7-azabicyclo[2.2.1]hept-1-yl}methanol], the Emax at 10 µM in assay [1] was below 25%; in assay [2], above 75%.

Take `O[C@H](c1cccc(F)c1)C12CCC(CCc3cccnc3)(CC1)N2` [Compound 446, (R)-(m-fluorophenyl){4-[2-(3-pyridyl)ethyl]-7-azabicyclo[2.2.1]hept-1-yl}methanol]: the Emax at 10 µM is 50 to 75% in assay [1] and above 75% in assay [2].

As to `CC(C)(C[C@H]1CC[C@@H](NC(=O)C2CC2)CC1)NC[C@H](O)c1cccc(F)c1` [Compound 447, N-[(1S,4s)-4-{2-[(R)-2-(m-fluorophenyl)-2-hydroxyethylamino]-2-methylpropyl}cyclohexyl]cyclopropanecarboxamide], the Emax at 10 µM in assay [1] was below 25%; in assay [2] it was above 75%.

As for `CC(C)(C[C@H]1CC[C@@H](NC(=O)C2CCC2)CC1)NC[C@H](O)c1cccc(F)c1` [Compound 448, N-[(1S,4s)-4-{2-[(R)-2-(m-fluorophenyl)-2-hydroxyethylamino]-2-methylpropyl}cyclohexyl]cyclobutanecarboxamide], the Emax at 10 µM is below 25% in assay [1] and 50 to 75% in assay [2].

For the compound `CC(C)(C[C@H]1CC[C@@H](NC(=O)OC(C)(C)C)CC1)NC[C@H](O)c1cccc(F)c1` [Compound 449], the Emax at 10 µM is below 25% in assay [1] and 50 to 75% in assay [2].

As for `CC(C)(C[C@H]1CC[C@@H](NC(=O)OC(C)(C)C)CC1)NC[C@H](O)c1cccc(C(F)(F)F)n1` [Compound 450, (1R,4s)-4-(2-{(S)-2-hydroxy-2-[6-(trifluoromethyl)-2-pyridyl]ethylamino}-2-methylpropyl)cyclohexyl 2-methyl-2-propanecarbamate], the Emax at 10 µM in assay [1] and in assay [2] was below 25% throughout.

`CCCS(=O)(=O)N[C@H]1CC[C@H](CC(C)(C)NC[C@H](O)c2cccc(F)c2)CC1` [Compound 451, (R)-2-{1,1-dimethyl-2-[(1r,4R)-4-(propylsulfonylamino)cyclohexyl]ethylamino}-1-(m-fluorophenyl)-1-ethanol]: the Emax at 10 µM in assay [1] lay in the range of 25 to 50%; in assay [2] it was 50 to 75%.

With `CC(=O)N[C@H]1CC[C@@H](CC(C)(C)NC[C@H](O)c2cccc(F)c2)CC1` [Compound 452, N-[(1S,4s)-4-{2-[(R)-2-(m-fluorophenyl)-2-hydroxyethylamino]-2-methylpropyl}cyclohexyl]acetamide], the values for the Emax at 10 µM in assay [1] and in assay [2] were below 25% and above 75%, respectively.

For the compound `CC(C)(C[C@H]1CC[C@@H](NS(C)(=O)=O)CC1)NC[C@H](O)c1cccc(F)c1` [Compound 453, (R)-2-{1,1-dimethyl-2-[(1s,4S)-4-(mesylamino)cyclohexyl]ethylamino}-1-(m-fluorophenyl)-1-ethanol], the Emax at 10 µM in assay [1] was below 25%; in assay [2] it was above 75%.
